What was measured:
AKT1 E17K mutant protein = AKT1 E17K mutant protein (Homo sapiens (Human), UniProt P31749, E17K); test: Intact mass spectrometry, covalent complex formation and ARQ-092 competition; format: binding; settings: for covalent complex formation with AKT1 E17K mutant protein / covalent complex formation with AKT1 E17K mutant protein in presence of competitor: protein 1 μM, compound 1.5 μM, 2 hrs at 37° C., NaBH4 reduction; for covalent complex formation with AKT1 E17K mutant protein: absence of competitor; for covalent complex formation with AKT1 E17K mutant protein in presence of competitor: with ARQ092 (50 μM); for selectivity of complex formation, AKT1 E17K versus AKT1 WT: comparison of the spectra without competitor
Chain of AKT1 E17K mutant protein (P31749 2-480 E17K): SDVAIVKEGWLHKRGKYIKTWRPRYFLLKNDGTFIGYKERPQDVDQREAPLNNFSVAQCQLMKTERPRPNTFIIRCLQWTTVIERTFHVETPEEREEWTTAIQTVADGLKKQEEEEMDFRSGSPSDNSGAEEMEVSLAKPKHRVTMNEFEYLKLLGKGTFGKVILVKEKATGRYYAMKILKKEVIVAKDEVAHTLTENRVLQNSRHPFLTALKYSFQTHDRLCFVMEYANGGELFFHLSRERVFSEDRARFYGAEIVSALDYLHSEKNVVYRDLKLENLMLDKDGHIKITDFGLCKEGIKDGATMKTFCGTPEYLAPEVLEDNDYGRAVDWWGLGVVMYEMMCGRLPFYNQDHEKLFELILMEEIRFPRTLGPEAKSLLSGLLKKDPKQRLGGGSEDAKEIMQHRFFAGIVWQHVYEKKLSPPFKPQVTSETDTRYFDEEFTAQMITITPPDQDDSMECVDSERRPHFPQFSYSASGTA
Description: (§1) AKT1 WT or AKT1 E17K (1 μM) was treated with a compound from Table 1 (1.5 μM) for 2 hrs at 37° C., with and without ARQ092 (50 μM) competitor as a specificity control. Reversible imines were captured by reductive amination with 5 mM NaBH4 for 5 min. Reduction reactions were quenched by diluting the sample in equal volume acetonitrile+1% TFA, then analyzed by LCMS.
(§2) FIGS. 1 to 25 provide intact mass spectra for AKT1 WT protein and AKT1 E17K mutant protein after incubation with compounds of the present disclosure and subsequent borohydride reduction. […] Further, FIGS. 1 to 10, 12, and 14 to 25 each provide intact mass spectra following the incubation of an AKT1 protein with a compound of the present disclosure both in the absence of a competitor molecule (i.e., ARQ-092, a molecule known to bind to and inhibit the function of AKT1); and in the presence of a significant stoichiometric excess of a competitor molecule.

AKT1 WT [1] = biological target: T1, AKT1 WT (Homo sapiens (Human), UniProt P31749); test: as above; format: binding; settings: protein 1 μM, compound 1.5 μM, 2 hrs at 37° C., NaBH4 reduction; for covalent complex formation with AKT1 WT protein: absence of competitor; for covalent complex formation with AKT1 WT protein in presence of competitor: with ARQ092 (50 μM)
Description: as §1, §2
Target sequence in this assay (P31749 2-480): as the sequence (P31749 2-480 E17K) above, with K16E counted along it

AKT1 E17K = AKT1 E17K (Homo sapiens (Human), UniProt P31749, E17K); test: Live cell target engagement (NanoBRET) in HEK293 cells; format: cell-based; settings: for IC50: HEK293, 2 hours at 37° C.
Chain of AKT1 E17K (P31749 whole entry E17K): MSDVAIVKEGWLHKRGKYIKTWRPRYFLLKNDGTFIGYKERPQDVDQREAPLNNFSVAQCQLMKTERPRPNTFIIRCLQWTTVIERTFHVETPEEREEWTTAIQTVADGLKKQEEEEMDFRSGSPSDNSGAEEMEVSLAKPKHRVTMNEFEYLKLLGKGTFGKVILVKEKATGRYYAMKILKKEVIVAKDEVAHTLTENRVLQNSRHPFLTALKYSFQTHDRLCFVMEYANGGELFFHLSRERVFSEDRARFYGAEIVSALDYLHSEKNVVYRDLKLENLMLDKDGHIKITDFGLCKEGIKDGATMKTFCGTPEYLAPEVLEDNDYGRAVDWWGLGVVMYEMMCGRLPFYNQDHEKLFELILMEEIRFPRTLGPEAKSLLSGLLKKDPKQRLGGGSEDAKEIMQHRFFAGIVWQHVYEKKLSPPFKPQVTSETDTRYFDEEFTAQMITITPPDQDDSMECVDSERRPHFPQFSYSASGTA

AKT1 WT [2] = biological target: T1, AKT1 WT; test: as above; format: cell-based; settings: HEK293, 2 hours at 37° C.
Target sequence in this assay (P31749 whole entry): as the sequence (P31749 whole entry E17K) above, with K17E counted along it

AKT2 = AKT2 (Homo sapiens (Human), UniProt P31751); test: as above; format: cell-based; settings: HEK293, 2 hours at 37° C.
Chain of AKT2 (P31751 whole entry): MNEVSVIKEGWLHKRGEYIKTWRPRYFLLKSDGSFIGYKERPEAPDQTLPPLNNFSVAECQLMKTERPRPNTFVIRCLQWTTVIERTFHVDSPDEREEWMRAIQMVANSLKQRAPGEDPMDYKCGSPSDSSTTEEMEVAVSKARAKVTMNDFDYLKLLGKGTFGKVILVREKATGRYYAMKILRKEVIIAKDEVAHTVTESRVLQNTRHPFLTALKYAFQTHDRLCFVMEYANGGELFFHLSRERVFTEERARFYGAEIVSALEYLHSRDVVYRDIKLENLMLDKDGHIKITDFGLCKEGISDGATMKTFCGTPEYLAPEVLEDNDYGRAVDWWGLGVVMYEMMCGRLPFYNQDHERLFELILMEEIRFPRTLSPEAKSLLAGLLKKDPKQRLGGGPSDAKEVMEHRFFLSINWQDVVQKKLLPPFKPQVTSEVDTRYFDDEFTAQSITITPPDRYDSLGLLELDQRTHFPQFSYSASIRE

Row | SMILES | covalent complex formation with AKT1 E17K mutant protein (AKT1 E17K mutant protein) | covalent complex formation with AKT1 WT protein (AKT1 WT [1]) | AKT1 E17K IC50: Selectivity vs AKT1 WT (AKT1 E17K) | AKT1 E17K IC50: Selectivity vs AKT2 (AKT1 E17K) | IC50 (AKT1 E17K) [nM] | IC50 (AKT1 WT [2]) [nM] | IC50 (AKT2) [nM] | covalent complex formation with AKT1 E17K mutant protein in presence of competitor (AKT1 E17K mutant protein) | covalent complex formation with AKT1 WT protein in presence of competitor (AKT1 WT [1]) | selectivity of complex formation, AKT1 E17K versus AKT1 WT (AKT1 E17K mutant protein)
1 | Nc1ncccc1-c1nc2ccc(N3CCOCC3)nc2n1-c1ccc(CNC(=O)Cc2ccc(C=O)c(O)c2)cc1 [Compound 49, N-({4-[2-(2-aminopyridin-3-yl)-5-(morpholin-4-yl)imidazo[4,5-b]pyridin-3-yl]phenyl}methyl)-2-(4-formyl-3-hydroxyphenyl)acetamide] | significant presence of a covalent complex | significant presence of covalent complex | 20 | 1500 | < 100 | < 100 | > 500 | Essentially little to no covalent complex formation | Essentially no covalent complex formation | –
2 | Nc1ncccc1-c1nc2ccc(-c3ccccc3)nc2n1-c1ccc(CNC(=O)c2cc(Cl)c(O)c(C=O)c2)cc1 [Compound 52, N-(4-(2-(2-aminopyridin-3-yl)-5-phenyl-3H-imidazo[4,5-b]pyridin-3-yl)benzyl)-3-chloro-5-formyl-4-hydroxybenzamide] | presence of a covalent complex | only peaks corresponding to unmodified WT protein | 1.2 | 11 | < 100 | < 100 | 100 to 500 | Essentially no covalent complex formation | only peaks corresponding to unmodified WT protein | selective for complex formation with AKT1 E17K
3 | Nc1ncccc1-c1nc2ccc(-c3ccccc3)nc2n1-c1ccc(CNC(=O)c2cc(F)c(O)c(C=O)c2)cc1 [Compound 53, N-({4-[2-(2-aminopyridin-3-yl)-5-phenylimidazo[4,5-b]pyridin-3-yl]phenyl}methyl)-3-fluoro-5-formyl-4-hydroxybenzamide] | presence of a covalent complex | only peaks corresponding to unmodified WT protein | 2.7 | 48 | < 100 | < 100 | 100 to 500 | Essentially no covalent complex formation | only peaks corresponding to unmodified WT protein | selective for complex formation with AKT1 E17K
4 | Nc1ncccc1-c1nc2ccc(-c3ccccc3)nc2n1-c1ccc(CNC(=O)C2(c3cnc(C=O)c(O)c3)CC2)cc1 [Compound 56, N-({4-[2-(2-aminopyridin-3-yl)-5-phenylimidazo[4,5-b]pyridin-3-yl]phenyl}methyl)-1-(6-formyl-5-hydroxypyridin-3-yl)cyclopropane-1-carboxamide] | small presence of a covalent complex | presence of a covalent complex | 93 | 490 | < 100 | > 500 | > 500 | Essentially no covalent complex formation | Essentially no covalent complex formation | –
5 | Nc1ncccc1-c1nc2ccc(-c3ccccc3)nc2n1-c1ccc(CC(=O)NCc2ccc(C=O)c(O)c2)cc1 [Compound 58, 2-{4-[2-(2-aminopyridin-3-yl)-5-phenylimidazo[4,5-b]pyridin-3-yl]phenyl}-N-[(4-formyl-3-hydroxyphenyl)methyl]acetamide] | significant presence of a covalent complex | presence of a covalent complex | 8.6 | 410 | < 100 | < 100 | > 500 | Essentially no covalent complex formation | Essentially no covalent complex formation | –
6 | Nc1ncccc1-c1nc2ccc(-c3ccccc3)nc2n1-c1ccc(CCNCc2ccc(C=O)c(O)c2)cc1 [Compound 72, 4-{[(2-{4-[2-(2-aminopyridin-3-yl)-5-phenylimidazo[4,5-b]pyridin-3-yl]phenyl}ethyl)amino]methyl}-2-hydroxybenzaldehyde] | significant presence of a covalent complex | significant presence of a covalent complex | 1.7 | 18 | < 100 | < 100 | < 100 | significantly smaller level of covalent complex formation | Essentially no covalent complex formation | –
7 | Nc1ncccc1-c1nc2ccc(-c3ccccc3)nc2n1-c1ccc(CNC(=O)Cc2ccc(C=O)c(O)n2)cc1 [Compound 75, N-(4-(2-(2-aminopyridin-3-yl)-5-phenyl-3H-imidazo[4,5-b]pyridin-3-yl)benzyl)-2-(5-formyl-6-hydroxypyridin-2-yl)acetamide] | only peaks corresponding to unmodified WT/mutant protein | only peaks corresponding to unmodified WT/mutant protein | 1.7 | 3.7 | 100 to 500 | 100 to 500 | > 500 | – | – | –
8 | CC(=O)Nc1cc(CC(=O)NCc2ccc(-n3c(-c4cccnc4N)nc4cccnc43)cc2)ccc1C=O [Compound 91, 2-(3-acetamido-4-formylphenyl)-N-(4-(2-(2-aminopyridin-3-yl)-3H-imidazo[4,5-b]pyridin-3-yl)benzyl)acetamide] | presence of a covalent complex | presence of a covalent complex | 5 | 120 | < 100 | 100 to 500 | > 500 | Essentially no covalent complex formation | Essentially no covalent complex formation | –
9 | Nc1ncccc1-c1nc2ccc(N3CCOCC3)nc2n1-c1ccc(CNCCc2ccc(C=O)c(O)c2)cc1 [Compound 107, 4-(2-((4-(2-(2-aminopyridin-3-yl)-5-morpholino-3H-imidazo[4,5-b]pyridin-3-yl)benzyl)amino)ethyl)-2-hydroxybenzaldehyde] | only peaks corresponding to unmodified mutant protein | only peaks corresponding to unmodified WT protein | 3.5 | 76 | < 100 | 100 to 500 | > 500 | only peaks corresponding to unmodified mutant protein | only peaks corresponding to unmodified WT protein | –
10 | Nc1ncccc1-c1nc2cccnc2n1-c1ccc(CNCCc2ccc(C=O)c(O)c2)cc1 [Compound 114, 4-(2-((4-(2-(2-aminopyridin-3-yl)-3H-imidazo[4,5-b]pyridin-3-yl)benzyl)amino)ethyl)-2-hydroxybenzaldehyde] | presence of covalent complex | presence of covalent complex | 2.2 | 14 | < 100 | 100 to 500 | > 500 | Essentially no covalent complex formation | Essentially no covalent complex formation | –
11 | Nc1ncccc1-c1nc2ccc(-c3ccccc3)nc2n1-c1ccc(CNCCc2ccc(C=O)c(O)c2F)cc1 [Compound 122, 4-{2-[({4-[2-(2-aminopyridin-3-yl)-5-phenylimidazo[4,5-b]pyridin-3-yl]phenyl}methyl)amino]ethyl}-3-fluoro-2-hydroxybenzaldehyde] | presence of covalent complex | presence of covalent complex | 1.3 | 3.2 | < 100 | < 100 | < 100 | Essentially no covalent complex formation | Essentially no covalent complex formation | –

Reference: patent US20250115600A1, “COVALENT MODIFIERS OF AKT1 AND USES THEREOF” (Terremoto Biosciences, Inc., priority 2022, published 2025)
